For assay [1], the target named is T1, Serine/threonine-protein kinase ICK (Homo sapiens) (UniProt Q9UPZ9).
T1 sequence (whole entry): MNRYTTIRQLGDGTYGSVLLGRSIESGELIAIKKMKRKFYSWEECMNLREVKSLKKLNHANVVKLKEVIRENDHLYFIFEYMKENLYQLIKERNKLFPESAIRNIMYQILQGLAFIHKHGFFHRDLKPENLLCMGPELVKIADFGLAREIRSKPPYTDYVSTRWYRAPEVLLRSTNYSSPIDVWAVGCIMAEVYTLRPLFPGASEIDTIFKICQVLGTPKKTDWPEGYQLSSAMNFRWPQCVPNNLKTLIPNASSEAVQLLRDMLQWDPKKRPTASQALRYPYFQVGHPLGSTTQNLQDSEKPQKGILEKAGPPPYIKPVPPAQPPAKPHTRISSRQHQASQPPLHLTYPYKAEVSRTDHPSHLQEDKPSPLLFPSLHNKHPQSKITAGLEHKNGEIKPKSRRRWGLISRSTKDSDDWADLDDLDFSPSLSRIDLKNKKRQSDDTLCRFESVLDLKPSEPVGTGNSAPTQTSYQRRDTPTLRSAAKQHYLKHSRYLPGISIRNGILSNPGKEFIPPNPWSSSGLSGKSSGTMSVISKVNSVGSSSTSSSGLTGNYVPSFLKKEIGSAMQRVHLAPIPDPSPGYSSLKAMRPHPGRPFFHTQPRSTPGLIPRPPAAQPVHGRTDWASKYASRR
Description: Selectivity interaction (Ambit KINOMEscan and KiNATiv profiling in Jurkat cells) EUB0000090b ICK. It is filed as cell-based. The conditions noted are these: at 1 µM.

The target in assay [2] is Casein kinase I isoform epsilon (Homo sapiens, UniProt P49674). Description: Selectivity interaction (SelectScreen profiling (Invitrogen)) EUB0000607a CSNK1E. The conditions noted are these: at 2 µM.
Sequence of Casein kinase I isoform epsilon (P49674 whole entry, looked up, canonical isoform): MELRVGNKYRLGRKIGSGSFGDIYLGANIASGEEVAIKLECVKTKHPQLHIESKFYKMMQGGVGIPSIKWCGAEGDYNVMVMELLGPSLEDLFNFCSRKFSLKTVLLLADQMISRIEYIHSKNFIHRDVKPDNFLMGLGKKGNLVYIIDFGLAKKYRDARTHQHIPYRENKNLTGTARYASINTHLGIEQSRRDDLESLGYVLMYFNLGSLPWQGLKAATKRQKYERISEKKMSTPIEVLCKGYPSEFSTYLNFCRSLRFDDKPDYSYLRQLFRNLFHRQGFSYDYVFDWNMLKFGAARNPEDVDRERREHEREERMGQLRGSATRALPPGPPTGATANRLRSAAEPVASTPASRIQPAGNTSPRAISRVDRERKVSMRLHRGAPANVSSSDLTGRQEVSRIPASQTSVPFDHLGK
Assay [3] deals with Tyrosine-protein kinase Fer (Homo sapiens) (UniProt P16591). Description: Selectivity interaction (SelectScreen profiling (Invitrogen)) EUB0000607a FER. The conditions noted are these: at 2 µM.
Sequence of Tyrosine-protein kinase Fer (Homo sapiens) (P16591 whole entry, looked up): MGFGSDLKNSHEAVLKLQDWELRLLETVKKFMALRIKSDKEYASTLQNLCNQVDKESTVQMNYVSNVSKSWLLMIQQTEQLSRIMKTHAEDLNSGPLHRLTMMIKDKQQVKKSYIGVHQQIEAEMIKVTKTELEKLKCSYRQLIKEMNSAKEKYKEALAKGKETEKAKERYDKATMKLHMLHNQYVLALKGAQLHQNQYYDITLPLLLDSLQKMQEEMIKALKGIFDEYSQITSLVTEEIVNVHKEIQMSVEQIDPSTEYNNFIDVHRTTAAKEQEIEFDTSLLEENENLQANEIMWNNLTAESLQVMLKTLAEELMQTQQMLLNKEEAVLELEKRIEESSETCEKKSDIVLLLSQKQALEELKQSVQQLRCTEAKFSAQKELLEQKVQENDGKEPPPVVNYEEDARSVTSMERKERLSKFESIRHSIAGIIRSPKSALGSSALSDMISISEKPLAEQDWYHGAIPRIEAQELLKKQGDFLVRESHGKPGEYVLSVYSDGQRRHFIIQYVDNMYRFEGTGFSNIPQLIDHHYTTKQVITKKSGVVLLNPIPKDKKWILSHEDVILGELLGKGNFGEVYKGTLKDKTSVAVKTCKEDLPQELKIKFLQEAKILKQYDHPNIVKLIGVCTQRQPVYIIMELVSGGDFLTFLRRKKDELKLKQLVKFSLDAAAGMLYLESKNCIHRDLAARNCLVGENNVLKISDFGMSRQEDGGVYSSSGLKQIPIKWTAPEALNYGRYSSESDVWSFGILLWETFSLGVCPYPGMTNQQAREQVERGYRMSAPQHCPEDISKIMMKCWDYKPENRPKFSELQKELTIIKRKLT
The target in assay [4] is Fibroblast growth factor receptor 1 (Homo sapiens, UniProt P11362). As to the kind of experiment: Selectivity interaction (SelectScreen profiling (Invitrogen)) EUB0000607a FGFR1. The conditions noted are these: at 2 µM.
Sequence of Fibroblast growth factor receptor 1 (P11362 22-822 limits assumed): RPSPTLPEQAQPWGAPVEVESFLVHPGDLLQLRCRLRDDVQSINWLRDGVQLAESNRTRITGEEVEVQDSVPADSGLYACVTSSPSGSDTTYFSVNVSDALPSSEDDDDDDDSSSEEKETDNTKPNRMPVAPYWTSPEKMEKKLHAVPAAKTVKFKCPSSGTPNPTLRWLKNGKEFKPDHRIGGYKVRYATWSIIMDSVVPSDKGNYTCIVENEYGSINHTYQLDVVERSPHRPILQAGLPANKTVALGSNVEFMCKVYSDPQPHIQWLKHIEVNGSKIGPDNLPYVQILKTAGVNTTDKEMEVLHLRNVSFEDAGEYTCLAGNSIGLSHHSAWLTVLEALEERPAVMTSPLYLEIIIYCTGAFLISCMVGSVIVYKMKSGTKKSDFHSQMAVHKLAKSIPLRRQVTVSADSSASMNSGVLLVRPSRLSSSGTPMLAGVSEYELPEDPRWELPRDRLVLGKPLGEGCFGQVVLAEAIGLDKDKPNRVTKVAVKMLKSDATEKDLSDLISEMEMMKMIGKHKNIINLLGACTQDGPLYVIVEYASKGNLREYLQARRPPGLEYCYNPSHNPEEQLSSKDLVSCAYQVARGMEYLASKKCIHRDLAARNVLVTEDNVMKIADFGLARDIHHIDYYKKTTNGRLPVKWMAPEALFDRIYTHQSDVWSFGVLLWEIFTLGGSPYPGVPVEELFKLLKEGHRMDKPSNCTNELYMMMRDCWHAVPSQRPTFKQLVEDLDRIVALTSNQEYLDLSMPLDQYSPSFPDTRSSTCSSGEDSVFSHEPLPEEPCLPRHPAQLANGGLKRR
Assay [5] concerns the target Serine/threonine-protein kinase pim-2 (Homo sapiens, UniProt Q9P1W9). Description: Selectivity interaction (KinomeScan (DiscoverX)) EUB0000607a PIM2. The conditions noted are these: at 10 µM.
In assay [6] the target is Mitogen-activated protein kinase 14 (Homo sapiens, UniProt Q16539). As to the kind of experiment: Selectivity interaction (Enzyme panel (AstraZeneca, AlphaScreen, functional assay)) EUB0000621a MAPK14.
Sequence of Mitogen-activated protein kinase 14 (Q16539 whole entry): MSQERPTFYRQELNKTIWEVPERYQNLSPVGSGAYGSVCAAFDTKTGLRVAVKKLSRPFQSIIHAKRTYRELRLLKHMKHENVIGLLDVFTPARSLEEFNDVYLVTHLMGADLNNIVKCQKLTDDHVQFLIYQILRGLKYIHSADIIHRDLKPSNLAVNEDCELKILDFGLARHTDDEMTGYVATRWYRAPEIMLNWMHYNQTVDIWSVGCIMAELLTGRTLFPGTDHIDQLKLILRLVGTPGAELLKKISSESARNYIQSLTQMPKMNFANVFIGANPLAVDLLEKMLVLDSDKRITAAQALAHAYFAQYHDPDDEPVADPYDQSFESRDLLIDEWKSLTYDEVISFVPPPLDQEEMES
Assay [7] has as its target Phosphatidylinositol 4-phosphate 5-kinase type-1 gamma (Homo sapiens) (UniProt O60331). As to the kind of experiment: Selectivity interaction (KinomeScan (DiscoverX)) EUB0000229b PIP5K1C. The conditions noted are these: at 10 µM.
The target in assay [8] is T2, Serine/threonine-protein kinase ULK2 (Homo sapiens) (UniProt Q8IYT8).
T2 sequence (whole entry): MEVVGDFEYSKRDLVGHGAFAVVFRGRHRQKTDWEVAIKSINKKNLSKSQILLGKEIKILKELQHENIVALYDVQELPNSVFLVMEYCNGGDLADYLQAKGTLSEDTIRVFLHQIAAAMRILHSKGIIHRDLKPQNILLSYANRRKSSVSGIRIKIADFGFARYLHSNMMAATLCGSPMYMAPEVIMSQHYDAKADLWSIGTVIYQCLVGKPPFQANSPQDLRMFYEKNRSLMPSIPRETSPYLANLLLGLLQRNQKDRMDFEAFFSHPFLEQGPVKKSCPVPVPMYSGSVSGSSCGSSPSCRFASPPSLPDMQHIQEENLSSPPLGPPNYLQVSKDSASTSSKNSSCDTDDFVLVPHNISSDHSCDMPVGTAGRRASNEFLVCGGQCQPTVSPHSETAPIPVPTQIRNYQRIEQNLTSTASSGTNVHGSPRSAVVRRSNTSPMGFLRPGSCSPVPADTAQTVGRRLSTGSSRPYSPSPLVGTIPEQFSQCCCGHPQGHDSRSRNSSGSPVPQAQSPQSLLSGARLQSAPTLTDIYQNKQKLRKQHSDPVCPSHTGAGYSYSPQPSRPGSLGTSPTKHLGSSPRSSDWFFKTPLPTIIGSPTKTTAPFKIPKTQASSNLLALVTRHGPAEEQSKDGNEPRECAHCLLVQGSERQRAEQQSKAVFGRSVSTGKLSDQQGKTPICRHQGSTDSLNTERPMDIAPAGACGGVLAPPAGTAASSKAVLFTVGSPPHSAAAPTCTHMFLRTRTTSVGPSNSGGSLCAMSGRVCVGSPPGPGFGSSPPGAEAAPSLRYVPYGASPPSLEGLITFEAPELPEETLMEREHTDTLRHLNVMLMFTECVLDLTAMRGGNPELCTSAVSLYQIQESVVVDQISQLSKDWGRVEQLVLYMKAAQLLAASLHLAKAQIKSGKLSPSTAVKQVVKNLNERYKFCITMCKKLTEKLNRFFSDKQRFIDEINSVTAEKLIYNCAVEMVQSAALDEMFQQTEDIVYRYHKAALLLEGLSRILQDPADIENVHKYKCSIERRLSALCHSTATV
As to the kind of experiment: Selectivity interaction (KinomeScan (DiscoverX)) EUB0000655a ULK2. The conditions noted are these: at 10 µM.

The target of assay [9] is T3, Mitogen-activated protein kinase 12 (Homo sapiens) (UniProt P53778).
T3 sequence (whole entry): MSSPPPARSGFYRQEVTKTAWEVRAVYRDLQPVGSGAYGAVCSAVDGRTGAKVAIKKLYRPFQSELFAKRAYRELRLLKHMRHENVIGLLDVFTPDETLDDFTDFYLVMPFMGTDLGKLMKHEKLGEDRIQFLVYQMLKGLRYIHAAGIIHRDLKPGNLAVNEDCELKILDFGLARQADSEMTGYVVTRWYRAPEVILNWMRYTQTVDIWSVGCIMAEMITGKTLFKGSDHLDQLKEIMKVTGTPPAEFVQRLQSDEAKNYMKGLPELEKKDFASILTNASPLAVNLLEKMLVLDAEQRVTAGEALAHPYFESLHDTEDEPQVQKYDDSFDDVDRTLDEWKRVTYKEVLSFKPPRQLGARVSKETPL
As to the kind of experiment: Selectivity interaction (KinomeScan (DiscoverX)) EUB0001079a MAPK12. The conditions noted are these: at 1 µM.

Assay [10] concerns the target Putative phosphatidylinositol 4-kinase alpha-like protein P2 (Homo sapiens) (UniProt A4QPH2). Description: Selectivity interaction (ActivX KiNativ screen (kinase selectivity in THP-1 cell lysates)) EUB0000639a PI4KAP2. It is filed as subcellular. The conditions noted are these: lysate.
In assay [11] the target is Mitogen-activated protein kinase kinase kinase kinase 1 (Homo sapiens) (UniProt Q92918). The conditions noted are these: at 10 µM.
Sequence of Mitogen-activated protein kinase kinase kinase kinase 1 (Homo sapiens) (Q92918 whole entry, looked up): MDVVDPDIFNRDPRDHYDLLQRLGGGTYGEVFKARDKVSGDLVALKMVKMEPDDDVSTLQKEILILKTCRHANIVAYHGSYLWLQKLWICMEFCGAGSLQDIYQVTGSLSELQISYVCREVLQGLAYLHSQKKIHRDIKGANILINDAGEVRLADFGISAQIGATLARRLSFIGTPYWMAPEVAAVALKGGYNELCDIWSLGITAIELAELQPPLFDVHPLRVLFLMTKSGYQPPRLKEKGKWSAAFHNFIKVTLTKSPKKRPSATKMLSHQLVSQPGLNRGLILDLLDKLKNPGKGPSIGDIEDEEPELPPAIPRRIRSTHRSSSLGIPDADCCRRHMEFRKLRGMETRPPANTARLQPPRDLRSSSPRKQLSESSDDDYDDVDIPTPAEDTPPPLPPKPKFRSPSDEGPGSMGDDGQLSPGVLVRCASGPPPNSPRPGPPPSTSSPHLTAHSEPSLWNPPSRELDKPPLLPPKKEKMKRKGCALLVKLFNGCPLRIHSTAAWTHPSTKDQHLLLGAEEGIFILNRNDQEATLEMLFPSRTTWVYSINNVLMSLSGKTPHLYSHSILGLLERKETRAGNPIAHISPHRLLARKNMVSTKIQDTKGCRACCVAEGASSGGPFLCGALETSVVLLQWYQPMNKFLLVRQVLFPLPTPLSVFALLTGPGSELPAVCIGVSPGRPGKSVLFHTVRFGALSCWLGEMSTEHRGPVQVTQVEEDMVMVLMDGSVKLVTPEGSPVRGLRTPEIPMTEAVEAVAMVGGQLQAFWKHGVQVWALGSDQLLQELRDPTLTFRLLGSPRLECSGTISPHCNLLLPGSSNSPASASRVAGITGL
Assay [12] has as its target T3, Mitogen-activated protein kinase 12 (Homo sapiens). Description: Selectivity interaction (KinomeScan (DiscoverX)) EUB0000618a MAPK12. The conditions noted are these: at 10 µM.

Bounds are passed on as bounds.

Sequence of Putative phosphatidylinositol 4-kinase alpha-like protein P2 (Homo sapiens) (A4QPH2 whole entry): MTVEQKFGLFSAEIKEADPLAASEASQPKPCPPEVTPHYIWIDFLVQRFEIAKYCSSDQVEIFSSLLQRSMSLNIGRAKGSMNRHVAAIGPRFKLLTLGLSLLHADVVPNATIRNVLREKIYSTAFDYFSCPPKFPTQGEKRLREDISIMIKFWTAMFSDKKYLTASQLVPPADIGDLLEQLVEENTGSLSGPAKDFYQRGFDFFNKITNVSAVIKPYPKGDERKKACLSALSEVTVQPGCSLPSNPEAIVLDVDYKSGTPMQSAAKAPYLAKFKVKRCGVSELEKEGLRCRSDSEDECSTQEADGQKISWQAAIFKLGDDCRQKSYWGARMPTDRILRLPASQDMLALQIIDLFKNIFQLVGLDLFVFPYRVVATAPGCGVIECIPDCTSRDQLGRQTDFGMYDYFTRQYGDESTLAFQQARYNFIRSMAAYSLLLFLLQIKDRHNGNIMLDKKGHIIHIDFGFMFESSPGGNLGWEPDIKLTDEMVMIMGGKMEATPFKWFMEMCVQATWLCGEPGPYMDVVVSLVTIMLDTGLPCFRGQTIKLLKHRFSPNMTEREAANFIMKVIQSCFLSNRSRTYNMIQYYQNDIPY
Sequence of Phosphatidylinositol 4-phosphate 5-kinase type-1 gamma (Homo sapiens) (O60331 whole entry): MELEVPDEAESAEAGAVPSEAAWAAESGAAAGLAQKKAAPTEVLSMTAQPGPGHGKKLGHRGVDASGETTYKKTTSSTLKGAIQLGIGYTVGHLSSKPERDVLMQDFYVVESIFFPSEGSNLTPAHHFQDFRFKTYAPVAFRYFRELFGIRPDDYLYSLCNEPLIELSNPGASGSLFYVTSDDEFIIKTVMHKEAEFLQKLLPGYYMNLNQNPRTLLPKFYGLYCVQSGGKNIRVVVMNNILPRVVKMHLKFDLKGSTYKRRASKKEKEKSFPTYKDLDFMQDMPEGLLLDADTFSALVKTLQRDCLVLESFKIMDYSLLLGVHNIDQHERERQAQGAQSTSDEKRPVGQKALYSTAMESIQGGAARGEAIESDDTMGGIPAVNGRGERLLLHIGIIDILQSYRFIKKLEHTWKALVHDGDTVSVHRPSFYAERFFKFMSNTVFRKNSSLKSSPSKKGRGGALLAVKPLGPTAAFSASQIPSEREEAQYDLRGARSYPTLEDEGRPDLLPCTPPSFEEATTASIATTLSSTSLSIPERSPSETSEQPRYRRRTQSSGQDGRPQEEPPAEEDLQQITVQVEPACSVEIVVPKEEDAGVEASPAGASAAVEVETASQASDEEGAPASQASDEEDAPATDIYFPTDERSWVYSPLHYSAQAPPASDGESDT
Sequence of Serine/threonine-protein kinase pim-2 (Q9P1W9 whole entry, looked up): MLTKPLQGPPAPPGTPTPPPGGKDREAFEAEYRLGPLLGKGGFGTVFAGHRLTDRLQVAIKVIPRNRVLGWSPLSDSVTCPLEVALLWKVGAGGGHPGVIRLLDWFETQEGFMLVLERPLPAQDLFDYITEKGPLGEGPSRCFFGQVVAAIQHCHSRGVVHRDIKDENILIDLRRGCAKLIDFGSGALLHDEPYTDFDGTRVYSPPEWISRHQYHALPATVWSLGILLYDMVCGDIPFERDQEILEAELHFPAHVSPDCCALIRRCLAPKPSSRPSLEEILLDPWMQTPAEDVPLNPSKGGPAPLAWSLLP

In turn, `CN(C)C/C=C/C(=O)Nc1ccc(C(=O)N2CCCC(Nc3ncc(Cl)c(-c4c[nH]c5ccccc45)n3)C2)cc1` (stereo unspecified) showed a % of control in [1] of 62%.

Turning to `CNC(=O)Nc1ccc(-c2nc(N3CC4CCC(C3)O4)c3cnn(C4CCC5(CC4)OCCO5)c3n2)cc1`, the % of inhibition in [2] is 4%; in [3], 5%; in [4] it was 4%. In [5], the % of control was 74%. For the compound `Cc1cc([C@@H](C)Nc2ccccc2C(=O)O)c2nc(N3CCOCC3)cc(=O)n2c1` [AZD-6482], the IC50 in [6] was above 671 µM. In the case of `COc1cc(N(C)c2ccnc3ccc(C(F)(F)F)cc23)cc(OC)c1OC`, the % binding in assay [7] stood at 53%. In assay [8], `CN(C)CCOc1ccc(-c2nc(-c3ccncc3)c(-c3ccc4c(c3)CC/C4=N\O)[nH]2)cc1` yielded a % of control of 90%. In [9], `Nc1cnc(N2CCc3cc(S(=O)(=O)Nc4c(F)cc(Cl)cc4F)cc(N4CCCC4=O)c32)nc1` [TP-020n] displayed a % of control of 100%.

In the case of `CC[C@@H]1[C@H](F)C(=O)N[C@@H]1COc1nccc2cc(C(N)=O)c(OC)cc12` [ZIMLOVISERTIB], the % of inhibition in [10] (at 0.01 µM) is 7.2%; in [10] (at 0.04 µM) it was -7.1%; in assay [10] (at 0.2 µM) it was -24.4%; in [10] (at 1 µM), -6%; in assay [10] (at 5 µM), 38.5%. Take `CCN(CC)CCCCNc1ncc2cc(-c3cc(OC)cc(OC)c3)c(NC(=O)NC(C)(C)C)nc2n1`: the % of control in assay [11] was 100%. Turning to `O[C@H]1CC[C@H](Nc2ncc3nc(Nc4c(F)cc(F)cc4F)n([C@H]4CCOC4)c3n2)CC1`, the % of control in assay [12] came out at 80%.

The values are drawn from ChEMBL document CHEMBL5465560, “Selectivity Literature for EUbOPEN Chemogenomic Library” (2024).
